Measured values published in US8470868B2, “Formulation for the prevention of cardiovascular disease” (priority 2000, dated 2013).
Marks after values point to notes of the source that are not given here.

Columns and labels:
[1] = Prevalence of adverse effects in randomised placebo controlled trials (treated minus control); assay type: in vivo, human; conditions: daily dose: hydrochlorothiazide 12.5 mg, atenolol 25 mg, enalapril 5 mg, aspirin 75 mg; for Prevalence of any adverse effect in randomised trials (treated minus control) / Prevalence of serious adverse effects (those that warranted withdrawal from randomised trial) (treated minus control): atorvastatin 10 mg, folic acid 0.8 mg
Text: The dose of each medication has been chosen to maximise the ratio of benefit to hazard. It is recognised that some persons taking a combination of six drugs would develop adverse effects that were unacceptable. The adverse effects attributable to each of the component medications would be made clear to persons taking the combined formulation and alternative formulations omitting one or more of the component ingredients, with or without a substitute ingredient, would be available for persons unable to tolerate one component. […]

[2] = randomised trials, high risk and low risk persons; platelet function not measured; cited from earlier work
[3] = Expected reduction in risk of stroke from the risk factor change (cohort studies and randomised trials); assay type: in vivo, human; conditions: daily dose: hydrochlorothiazide 12.5 mg, atenolol 25 mg, enalapril 5 mg, atorvastatin 10 mg, aspirin 75 mg, folic acid 0.8 mg
Text: This combined estimate is based on the fact that the effects on the four different risk factors are unrelated and so the expected effects of changing each one will be independent of each other. This expectation is supported by two classes of evidence. […] For example the ratio of the risk of a disease event in persons with high blood pressure and the risk in persons with low blood pressure is similar, irrespective of the values of serum cholesterol and other risk factors. Second, some randomised clinical trials have used combinations of two of the drugs (for example beta blockers and aspirin) in patients with ischaemic heart disease and have shown that the effects are independent (that is, the relative risk in patients who took two drugs (compared with the risk in those who took none) was similar to the relative risk in persons taking one of the drugs multiplied by the relative risk in persons taking the other drug). Accordingly, the effect of the different drugs in combination in Table 3 has been calculated by multiplying the effects of each as shown in footnotes h and j.
The corresponding reductions in incidence of ischaemic heart disease and stroke are those to be expected from the blood pressure reductions, from published analyses of cohort studies and randomised controlled trials of blood pressure and ischaemic heart disease and stroke (references 1, 5).

[4] = atorvastatin 10 mg daily; cited from earlier work
[5] = Randomised controlled trials of folic acid: plasma homocysteine reduction; assay type: in vivo, human; conditions: unpublished randomised controlled trial performed by the applicant
[6] = cited from earlier work

SMILES | Prevalence of any adverse effect in randomised trials (treated minus control) [1] | Prevalence of serious adverse effects (those that warranted withdrawal from randomised trial) (treated minus control) [1] | Effect on the incidence of heart attacks and stroke [2] | Expected reduction in risk of stroke [3] | Associated physiological variable (reduction produced by drug): serum cholesterol [4] | Commonest adverse effects [1] | Lowest folic acid dose that produces the maximum reduction in homocysteine [5] | Associated physiological variable (reduction produced by drug): plasma/serum homocysteine ([6]; folic acid 0.8 mg daily) | Maximum reduction in plasma homocysteine ([6]; meta-analysis of published trials, folic acid doses between 1 mg and 5 mg, maximum produced by 1 mg)
CC(=O)Oc1ccccc1C(=O)O [Aspirin] | 1.8%^b | 0.7%^b | reduces the incidence of heart attacks and stroke in both high risk and low risk persons | – | – | – | – | – | –
CC(C)NCC(O)COc1ccc(CC(N)=O)cc1 (centres unmarked) [Atenolol] | 5.6%^a | 0.9%^a | – | – | – | – | – | – | –
CC(C)c1c(C(=O)Nc2ccccc2)c(-c2ccccc2)c(-c2ccc(F)cc2)n1CC[C@@H](O)C[C@@H](O)CC(=O)O [Atorvastatin] | 0.1% | <0.1% | – | 50%^d | (1.8 mmol/l | – | – | – | –
CCOC(=O)[C@H](CCc1ccccc1)N[C@@H](C)C(=O)N1CCC[C@H]1C(=O)O [Enalapril] | 2.1%^a | 0.2%^a | – | – | – | cough | – | – | –
Nc1nc2ncc(CNc3ccc(C(=O)N[C@@H](CCC(=O)O)C(=O)O)cc3)nc2c(=O)[nH]1 [Folic acid] | <0.1% | <0.1% | – | 10%^g | – | – | 0.8 mg | (3 μmol/l | 3 µmol/L
NS(=O)(=O)c1cc2c(cc1Cl)NCNS2(=O)=O [Hydrochlorothiazide] | 1.4%^a | 0.1%^a | – | – | – | – | – | – | –
